Experimental data: patent publication US10273223B2, “Substituted 6,5-fused bicyclic heteroaryl compounds” (Epizyme, Inc., priority 2011, dated 2019)

Biological target: EZH2 (PRC2 enzyme complex: EZH2, EED, Suz12, RbAp48) (Homo sapiens (Human), UniProt Q15910)
Test: PRC2 enzyme assay on peptide substrates (3H-SAM Flashplate)
Conditions: read-out: EZH2 IC50; PRC2 enzyme assays on peptide substrates; 4 nM enzyme, 30 min preincubation at 25° C.; EZH2 form (wild-type or Y641 mutant) not stated in tables

EZH2 (PRC2 enzyme complex: EZH2, EED, Suz12, RbAp48) (Homo sapiens (Human), UniProt Q15910), sequence (Q15910 other isoform, or with tags, fused parts or gaps): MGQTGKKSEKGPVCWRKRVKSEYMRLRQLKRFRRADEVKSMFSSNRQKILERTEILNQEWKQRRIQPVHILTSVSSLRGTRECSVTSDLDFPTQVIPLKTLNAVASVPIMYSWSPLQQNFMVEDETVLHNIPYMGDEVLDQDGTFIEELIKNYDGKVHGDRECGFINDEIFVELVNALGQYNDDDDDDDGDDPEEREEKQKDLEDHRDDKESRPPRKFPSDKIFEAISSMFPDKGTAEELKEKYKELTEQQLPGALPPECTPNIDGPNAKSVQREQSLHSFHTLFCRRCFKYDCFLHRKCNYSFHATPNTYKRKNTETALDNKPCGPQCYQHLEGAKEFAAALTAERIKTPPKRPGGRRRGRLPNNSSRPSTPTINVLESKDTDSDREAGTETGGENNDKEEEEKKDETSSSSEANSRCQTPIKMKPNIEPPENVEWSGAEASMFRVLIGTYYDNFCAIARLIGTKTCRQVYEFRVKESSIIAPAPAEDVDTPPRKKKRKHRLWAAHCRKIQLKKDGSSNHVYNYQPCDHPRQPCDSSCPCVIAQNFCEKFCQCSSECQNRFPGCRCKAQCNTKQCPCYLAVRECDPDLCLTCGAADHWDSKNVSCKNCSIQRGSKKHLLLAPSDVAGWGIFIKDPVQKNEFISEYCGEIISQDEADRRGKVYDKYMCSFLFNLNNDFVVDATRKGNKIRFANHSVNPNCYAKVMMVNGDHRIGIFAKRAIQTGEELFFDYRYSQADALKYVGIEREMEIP
EZH2 (PRC2 enzyme complex: EZH2, EED, Suz12, RbAp48) (Homo sapiens (Human), UniProt Q15910), sequence (O75530 whole entry partner): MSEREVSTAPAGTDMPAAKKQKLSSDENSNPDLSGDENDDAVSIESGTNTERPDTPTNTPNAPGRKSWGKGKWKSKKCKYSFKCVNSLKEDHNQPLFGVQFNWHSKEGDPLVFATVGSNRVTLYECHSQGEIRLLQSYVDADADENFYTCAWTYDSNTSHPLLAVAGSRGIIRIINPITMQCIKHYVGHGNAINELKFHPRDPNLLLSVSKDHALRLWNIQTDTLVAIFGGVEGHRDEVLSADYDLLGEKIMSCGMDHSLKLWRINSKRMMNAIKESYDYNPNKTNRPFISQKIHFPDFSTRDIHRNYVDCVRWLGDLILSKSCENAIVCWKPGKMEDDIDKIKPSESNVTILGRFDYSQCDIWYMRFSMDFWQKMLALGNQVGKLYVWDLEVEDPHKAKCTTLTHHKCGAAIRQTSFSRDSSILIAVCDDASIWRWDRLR
EZH2 (PRC2 enzyme complex: EZH2, EED, Suz12, RbAp48) (Homo sapiens (Human), UniProt Q15910), sequence (Q15022 whole entry partner): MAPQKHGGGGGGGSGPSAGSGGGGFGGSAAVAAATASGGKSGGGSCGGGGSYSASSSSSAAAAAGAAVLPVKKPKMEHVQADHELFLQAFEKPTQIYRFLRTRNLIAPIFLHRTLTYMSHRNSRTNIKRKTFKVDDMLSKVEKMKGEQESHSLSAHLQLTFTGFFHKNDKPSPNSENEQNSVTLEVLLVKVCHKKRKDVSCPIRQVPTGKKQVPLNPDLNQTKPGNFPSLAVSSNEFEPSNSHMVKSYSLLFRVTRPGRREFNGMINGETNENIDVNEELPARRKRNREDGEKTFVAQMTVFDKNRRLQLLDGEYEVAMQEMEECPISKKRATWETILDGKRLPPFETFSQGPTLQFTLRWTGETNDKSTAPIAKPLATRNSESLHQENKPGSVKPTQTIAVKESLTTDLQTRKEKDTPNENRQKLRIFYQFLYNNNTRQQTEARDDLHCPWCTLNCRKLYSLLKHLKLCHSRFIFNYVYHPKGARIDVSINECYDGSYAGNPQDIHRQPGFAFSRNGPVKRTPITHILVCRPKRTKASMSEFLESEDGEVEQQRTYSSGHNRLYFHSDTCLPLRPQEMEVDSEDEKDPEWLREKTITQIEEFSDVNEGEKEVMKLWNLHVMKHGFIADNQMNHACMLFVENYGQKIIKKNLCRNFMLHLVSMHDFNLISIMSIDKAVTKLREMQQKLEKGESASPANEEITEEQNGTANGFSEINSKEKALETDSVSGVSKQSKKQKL
EZH2 (PRC2 enzyme complex: EZH2, EED, Suz12, RbAp48) (Homo sapiens (Human), UniProt Q15910), sequence (Q09028 whole entry partner): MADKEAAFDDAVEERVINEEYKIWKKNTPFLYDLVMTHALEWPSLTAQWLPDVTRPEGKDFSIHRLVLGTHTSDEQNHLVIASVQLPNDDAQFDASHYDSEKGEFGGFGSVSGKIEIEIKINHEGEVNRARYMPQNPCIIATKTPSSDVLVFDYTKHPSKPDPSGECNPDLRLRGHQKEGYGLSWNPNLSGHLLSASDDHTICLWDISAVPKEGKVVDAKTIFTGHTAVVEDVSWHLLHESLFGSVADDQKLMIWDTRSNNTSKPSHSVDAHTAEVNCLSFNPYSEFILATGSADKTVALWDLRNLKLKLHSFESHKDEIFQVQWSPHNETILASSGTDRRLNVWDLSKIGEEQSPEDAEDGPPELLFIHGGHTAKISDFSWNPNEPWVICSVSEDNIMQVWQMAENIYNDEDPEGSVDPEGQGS

Row | Structure (SMILES) | IC50
1 | CC1=CC(C)=C(CNC(=O)c2cc(C3=CCN(C(=O)C4CN(C)C4)CC3)cc3c2cnn3C2CCCC2)C(C)N1 [Compound D-50] | < 0.3 µM
2 | Cc1cc(C)c(CNC(=O)c2cc(C3CC(C)(C)NC(C)(C)C3)nc3c2cnn3C2CCCC2)c(=O)[nH]1 [Compound B-4, 1-cyclopentyl-N-((4,6-dimethyl-2-oxo-1,2-dihydropyridin-3-yl)methyl)-6-(2,2,6,6-tetramethylpiperidin-4-yl)-1H-pyrazolo[3,4-b]pyridine-4-carboxamide] | < 0.3 µM
3 | CNCCN1CCC(c2cc(C(=O)NCC3=C(C)C=C(C)NC3C)c3cnn(C4CCCC4)c3c2)CC1 [Compound D-51] | < 0.3 µM

Biological target: EZH2 (PRC2 enzyme complex: EZH2, EED, Suz12, RbAp48) (Homo sapiens (Human), UniProt O75530+Q09028+Q15022+Q15910)
Sequence (Q15910 other isoform, or with tags, fused parts or gaps): as the sequence (Q15910 other isoform, or with tags, fused parts or gaps) above
Sequence (O75530 whole entry partner): as the sequence (O75530 whole entry partner) above
Sequence (Q15022 whole entry partner): as the sequence (Q15022 whole entry partner) above
Sequence (Q09028 whole entry partner): as the sequence (Q09028 whole entry partner) above
Test: as above
Conditions: not given

Row | Structure (SMILES) | IC50
4 | Cc1cc(C)c(CNC(=O)c2cc(-c3ccccc3CN)nc3c2cnn3C(C)C)c(=O)[nH]1 [Compound A-68] | 3 to 10 µM
5 | Cc1cc(C)c(CNC(=O)c2cc(-c3cccc(CNCCCN(C)C)c3)nc3c2cnn3C(C)C)c(=O)[nH]1 [Compound A-125] | 1 to 3 µM
6 | Cc1cc(C)c(CNC(=O)c2c(Cl)c(-c3ccc4c(c3)OCCO4)nc3c2cnn3C(C)C)c(=O)[nH]1 [Compound A-47] | 0.3 to 1 µM
7 | Cc1cc(C)c(CNC(=O)c2cc(-c3cccc(CN(C)CCN4CCCC4)c3)nc3c2cnn3C(C)C)c(=O)[nH]1 [Compound A-41] | 0.3 to 1 µM
8 | Cc1cc(C)n(C)c(=O)c1CNC(=O)c1cc(-c2cccc(CN(C)CCN(C)C)c2)nc2c1cnn2C(C)C [Compound A-74] | 10 to 50 µM
9 | Cc1cc(C(C)C)c(CNC(=O)c2cc(C3=CC(C)(C)NC(C)(C)C3)nc3c2cnn3C(C)C)c(=O)[nH]1 [Compound B-148] | 10 to 50 µM
10 | Cc1cc(C)c(CNC(=O)c2cc(C(C)C)nc3c2cnn3C(C)C)c(=O)[nH]1 [Compound B-109] | 1 to 3 µM
11 | CNCCN(C)Cc1cccc(-c2cc(C(=O)NCc3c(C)cc(C)[nH]c3=O)c3cnn(C(C)C)c3n2)c1 [Compound A-58] | 1 to 3 µM
12 | Cc1cc[nH]c(=O)c1CNC(=O)c1cc(-c2ccc3c(c2)OCCO3)nc2c1cnn2C(C)(C)C [Compound A-77] | 10 to 50 µM
